Measurements: ChEMBL document CHEMBL1201862, “PubChem BioAssay data set” (2004)
Active and inactive are the calls of the source. Rule as the data show it, for most assays here: actives have a measured EC50 and inactives only a lower limit.

How the values were obtained:
[1] = HEp-2 cell cytotoxicity, dose response, cytotoxicity control for RSV inhibitor project, HTS (AID 2410); assay type: functional; settings: human respiratory syncytial virus
[2] = Luminescence Cell-Based Dose Confirmation HTS to Identify Inhibitors of Platelet Dense Granule Release. [Related pubchem assays: 1663 (Primary HTS), 1678 (Summary of Project)]; assay type: functional
[3] = molecular target: Luciferin 4-monooxygenase (Photinus pyralis, UniProt P08659); assay: firefly luciferase enzyme inhibitors, dose response, biochemical, luminescence (AID 1891)
cells [4] = assay type: functional, cell-based
cells [5] = assay type: functional, cell-based; remark: listed apart in the source
[6] = Luminescence Cell-Based Dose Retest to Confirm Inhibitors of Cancer Stem Cells. [Related pubchem assays (depositor defined):AID2717, AID2721]; assay type: functional; settings: Homo sapiens
[7] = C. albicans growth with fluconazole, confirmation, fluorescence, retest (AID 2467); assay type: functional, cell-based
[8] = NIH-3T3 fibroblast cytotoxicity, dose response, cytotoxicity control, cell-based, fluorescence, Alamar Blue, secondary assay (AID 2327); assay type: functional;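 also: NIH-3T3 mouse fibroblasts cultured with fluconazole at 8 µg/mL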
[9] = inhibitors of intracellular T. cruzi replication, confirmation, NIH3T3 host cells, beta-gal luminescence (AID 2044); assay type: functional, cell-based;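 also: intracellular parasites grown in NIH/3T3 mouse fibroblasts as host cells; luminescent beta-galactosidase reporter signal from transgenic T. cruzi replicating inside host cells; inhibitors lower the luminescence signal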
INS1 = assay: beta cell apoptosis inhibitors, cytokine rescue, dose response, luminescence, retest (AID 449756); assay type: functional, cell-based; settings: Rattus norvegicus;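 also: cell death triggered by IL-1 beta plus TNF-alpha plus IFN-gamma mixture; protective hits raise ATP signal compared with cytokine alone wells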
[10] = cytotoxicity toward NIH3T3 fibroblasts, dose response, counter-screen, cell-based, ATP luminescence, mouse fibroblasts (AID 2010); assay type: functional;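 also: cells exposed to compound for about 90 hours before reading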
[11] = molecular target: T1, Corticotropin-releasing factor receptor 2/Corticotropin-releasing factor-binding protein (Homo sapiens, UniProt P24387+Q13324); assay: activators of CRF receptor 2 with binding protein – uHTS hits, confirmation (AID 602473); assay type: functional; settings: read-out: EC50_Mean
T1 sequence (Q13324 whole entry): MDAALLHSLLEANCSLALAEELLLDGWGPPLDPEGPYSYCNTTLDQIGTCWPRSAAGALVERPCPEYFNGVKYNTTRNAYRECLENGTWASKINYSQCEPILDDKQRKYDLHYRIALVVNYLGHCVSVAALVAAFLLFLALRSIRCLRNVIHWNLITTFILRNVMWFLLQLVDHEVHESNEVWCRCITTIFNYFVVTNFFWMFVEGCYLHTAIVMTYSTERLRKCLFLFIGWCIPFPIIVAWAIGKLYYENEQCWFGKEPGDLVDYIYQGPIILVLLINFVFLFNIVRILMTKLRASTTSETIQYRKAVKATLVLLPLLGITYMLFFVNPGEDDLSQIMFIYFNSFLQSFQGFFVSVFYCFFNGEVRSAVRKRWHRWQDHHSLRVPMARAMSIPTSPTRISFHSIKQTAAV
T1 sequence (P24387 whole entry): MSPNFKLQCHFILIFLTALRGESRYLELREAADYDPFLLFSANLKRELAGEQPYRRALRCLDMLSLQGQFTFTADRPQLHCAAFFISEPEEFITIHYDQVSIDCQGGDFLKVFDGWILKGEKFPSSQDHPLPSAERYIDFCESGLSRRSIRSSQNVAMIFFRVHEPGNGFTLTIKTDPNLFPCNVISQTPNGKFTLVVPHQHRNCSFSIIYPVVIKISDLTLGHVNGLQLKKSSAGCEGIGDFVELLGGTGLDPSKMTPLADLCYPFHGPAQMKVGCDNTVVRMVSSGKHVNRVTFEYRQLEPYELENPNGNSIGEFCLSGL

Protein RecA = molecular target: T2, Protein RecA (Mycobacterium tuberculosis, UniProt P9WHJ3); assay: Fluorescence Cell-Free Homogeneous Dose Retest to Identify Inhibitors of RecA-Intein Splicing Activity. [Related pubchem assays (depositor defined):AID2097, AID2223, AID489010, AID492950]; assay type: functional
T2 sequence (P9WHJ3 whole entry): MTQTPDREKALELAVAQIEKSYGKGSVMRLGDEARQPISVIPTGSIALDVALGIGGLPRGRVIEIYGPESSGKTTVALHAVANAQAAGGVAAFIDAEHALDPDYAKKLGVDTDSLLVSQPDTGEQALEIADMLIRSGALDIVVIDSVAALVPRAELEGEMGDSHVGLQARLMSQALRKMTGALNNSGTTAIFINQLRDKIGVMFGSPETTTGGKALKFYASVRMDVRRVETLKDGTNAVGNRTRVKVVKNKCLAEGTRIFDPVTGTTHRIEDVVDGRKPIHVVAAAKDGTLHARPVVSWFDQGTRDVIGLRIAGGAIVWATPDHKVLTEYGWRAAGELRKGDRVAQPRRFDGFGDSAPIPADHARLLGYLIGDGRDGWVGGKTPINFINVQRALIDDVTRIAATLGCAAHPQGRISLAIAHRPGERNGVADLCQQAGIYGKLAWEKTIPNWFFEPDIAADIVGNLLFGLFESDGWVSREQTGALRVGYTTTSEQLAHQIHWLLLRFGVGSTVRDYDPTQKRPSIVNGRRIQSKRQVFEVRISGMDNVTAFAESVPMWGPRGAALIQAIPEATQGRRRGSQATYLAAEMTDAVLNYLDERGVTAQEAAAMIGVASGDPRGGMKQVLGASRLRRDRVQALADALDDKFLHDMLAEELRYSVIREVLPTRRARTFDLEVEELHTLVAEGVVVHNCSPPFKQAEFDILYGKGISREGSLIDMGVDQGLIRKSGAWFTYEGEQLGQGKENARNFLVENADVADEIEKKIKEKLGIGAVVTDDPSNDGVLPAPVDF

[12] = molecular target: T3, Replicative DNA helicase DnaB (Mycobacterium tuberculosis, UniProt P9WMR3); assay: DnaB intein splicing inhibitors, dose response, biochemical, cell-free fluorescence (AID 449749); assay type: functional
T3 sequence (P9WMR3 whole entry): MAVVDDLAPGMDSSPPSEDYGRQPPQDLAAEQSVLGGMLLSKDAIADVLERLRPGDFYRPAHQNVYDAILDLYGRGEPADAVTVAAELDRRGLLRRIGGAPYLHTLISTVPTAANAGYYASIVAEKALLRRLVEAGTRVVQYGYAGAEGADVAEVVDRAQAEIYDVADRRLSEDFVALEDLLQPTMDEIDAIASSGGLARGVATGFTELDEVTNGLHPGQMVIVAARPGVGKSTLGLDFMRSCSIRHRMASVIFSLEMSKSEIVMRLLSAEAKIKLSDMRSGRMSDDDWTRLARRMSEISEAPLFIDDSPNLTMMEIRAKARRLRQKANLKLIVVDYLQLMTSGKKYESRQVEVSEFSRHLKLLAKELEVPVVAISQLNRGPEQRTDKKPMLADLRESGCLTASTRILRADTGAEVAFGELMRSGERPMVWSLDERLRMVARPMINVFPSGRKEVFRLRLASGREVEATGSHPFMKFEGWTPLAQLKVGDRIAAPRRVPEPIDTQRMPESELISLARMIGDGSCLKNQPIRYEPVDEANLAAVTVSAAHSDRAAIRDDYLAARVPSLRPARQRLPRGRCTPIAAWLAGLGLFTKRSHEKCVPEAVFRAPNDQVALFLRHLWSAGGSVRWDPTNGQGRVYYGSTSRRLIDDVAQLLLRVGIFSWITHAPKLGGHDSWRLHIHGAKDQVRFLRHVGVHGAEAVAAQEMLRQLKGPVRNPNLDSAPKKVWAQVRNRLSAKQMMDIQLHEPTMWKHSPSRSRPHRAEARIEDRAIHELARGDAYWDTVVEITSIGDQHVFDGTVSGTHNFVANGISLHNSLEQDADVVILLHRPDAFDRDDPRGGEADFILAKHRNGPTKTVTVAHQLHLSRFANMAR

[13] = Shn3 3'UTR reporter inhibitors, dose response, cell-based, Clone20 osteoblasts, firefly luciferase, cherry-picked (AID 624132); assay type: functional;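 also: firefly luciferase luminescence from reporter carrying the Shn3 3'UTR in osteoblasts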
[14] = control 3'UTR Renilla luciferase suppression, dose response, counter-screen for Shn3 inhibitor project, cell-based, Clone20-Shn3RL, cherry-picked (AID 624133); assay type: functional

Chain of Luciferin 4-monooxygenase (P08659 whole entry): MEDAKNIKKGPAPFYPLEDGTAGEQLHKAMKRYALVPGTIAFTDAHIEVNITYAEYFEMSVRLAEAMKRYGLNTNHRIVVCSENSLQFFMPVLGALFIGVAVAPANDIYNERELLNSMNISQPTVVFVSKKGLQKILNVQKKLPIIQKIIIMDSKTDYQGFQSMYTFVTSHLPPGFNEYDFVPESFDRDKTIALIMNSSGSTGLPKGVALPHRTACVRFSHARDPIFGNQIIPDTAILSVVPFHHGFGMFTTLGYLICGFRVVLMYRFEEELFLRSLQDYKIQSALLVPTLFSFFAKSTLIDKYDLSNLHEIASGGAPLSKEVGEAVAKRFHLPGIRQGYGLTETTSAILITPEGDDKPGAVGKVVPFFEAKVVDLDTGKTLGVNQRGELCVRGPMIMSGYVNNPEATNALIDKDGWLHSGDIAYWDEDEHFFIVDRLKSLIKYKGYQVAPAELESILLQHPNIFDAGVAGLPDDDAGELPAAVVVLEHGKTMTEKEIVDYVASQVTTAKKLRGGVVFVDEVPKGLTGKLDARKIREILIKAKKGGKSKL

## Cc1ccc(-c2ccc(/C=C/C(=O)c3ccccc3)o2)cc1
[1]
  CC50: 12.8 µM (active)

## COc1ccc(-c2cn3c(C)c(C(=O)N4CCCc5ccccc54)sc3n2)cc1
[1]
  CC50: 13.3 µM (active)

## CCc1nnc(NC(=O)CSc2nnc(Cc3cccn3C)n2CCOC)s1
[2]
  EC50: > 112 µM (not active)
[3]
  EC50: > 112 µM (not active)

## CCCN(CCC)C(C)C(=O)NCC1(c2ccccc2)CCCC1 (stereo not drawn)
Cells [4]
  EC50: > 350 µM (not active)
Cells [5]
  EC50: 45.6 µM (active)

## CNC(=S)Nc1ccc(C(N)=O)cc1
[3]
  EC50: > 112 µM (not active)

## Cc1cccc(NC(=O)CC2SC(=O)N(c3ccccc3)C2=O)c1 (stereo not drawn)
[2]
  EC50: > 112 µM (not active)
[3]
  EC50: > 112 µM (not active)

## O=C(/C=C/c1ccc2c(c1)OCO2)Nc1nc(-c2ccccc2)cs1
[6]
  AC50: 0.943 µM (active)

## CCc1cccc2c(-c3cs/c(=N\C)n3C)c[nH]c12
[1]
  CC50: 41.7 µM (active)

## CCOCCCN=C(S)Nc1cc(C)cc(C)c1
Cells [4]
  EC50: > 350 µM (not active)
Cells [5]
  EC50: > 350 µM (not active)

## COc1ccc(NC(=O)Nc2nc3c(s2)CCCC3)cc1
[7]
  EC50: 8.48 µM (active)
[8]
  EC50: > 150 µM (inactive)

## O=C(Cc1ccc(Cl)cc1)Nc1ccc2c(c1)C(=O)NC2=O
[6]
  AC50: > 195 µM (inactive)

## CCCCC(=O)N1C/C=C\C(c2ccc(OC)cc2)N(Cc2ccc(F)cc2)C(=O)[C@H]1Cc1ccccc1 (stereo partly drawn)
[9]
  EC50: 1.99 µM (active)
INS1
  AC50: 8.17 µM (active)
[10]
  EC50: > 60 µM (not active)

## COCCCn1c(SCc2cccc(C(F)(F)F)c2)nc2cc(OC)c(OC)cc2c1=N
[9]
  EC50: 1.92 µM (active)
[6]
  AC50: 4.12 µM (active)
[10]
  EC50: > 60 µM (not active)

## COCCN(C(=O)CC(C)(C)C)c1nnc(-c2cccnc2)s1
[2]
  EC50: > 112 µM (not active)
[3]
  EC50: > 112 µM (not active)

## CCOc1ccc(C(=O)Nc2ccc(Cc3ccncc3)cc2)cc1Br
[9]
  EC50: 1.68 µM (active)
[7]
  EC50: > 38 µM (not active)
[8]
  EC50: > 150 µM (inactive)
[10]
  EC50: > 60 µM (not active)

## Cc1ccc(S(=O)(=O)N2[C@@H](c3ccc(C(C)(C)C)cc3)C(C(=O)O)=CC[C@H]2c2cccc(Cl)c2)cc1
[6]
  AC50: 2.86 µM (active)

## COc1cccc(CNC(=O)N[C@@H](CC(C)C)C(=O)O)c1
[2]
  EC50: > 112 µM (not active)
[3]
  EC50: > 112 µM (not active)

## N=C(Cc1ccc(Cl)cc1Cl)NOC(=O)c1ccccc1
[7]
  EC50: > 38 µM (not active)
[8]
  EC50: > 160 µM (inactive)

## O=C(Nc1ccc(-n2cnnn2)cc1)c1cn2ccccc2n1
[11]
  EC50: > 53 µM (inactive)

## COCCNC(=O)C(c1ccc(C)o1)N(CCOC)C(=O)Cn1nnc2ccccc21 (stereo not drawn)
[7]
  EC50: > 38 µM (not active)
[8]
  EC50: > 150 µM (inactive)

## N#CC1(NC(=O)COC(=O)c2cc(O)c3ccccc3c2O)CCCCC1
Protein RecA
  EC50: 4.28 µM (active)
[12]
  AC50: 4.37 µM (active)
[6]
  AC50: 6.49 µM (active)

## Cc1cc(CN2CCOCC2)c(O)c(C2(C)CCCCC2)c1
[13]
  AC50: 32.3 µM (active)
[14]
  AC50: 32.1 µM (active)

## CN=C(S)Nc1ccc(C(N)=O)cc1
[2]
  EC50: > 112 µM (not active)

## Cc1ccc2[nH]c(SCC(=O)Nc3ccc(C)c([N+](=O)[O-])c3)nc2c1
[1]
  CC50: 25.5 µM (active)

## COc1ccccc1NC(=O)COC(=O)c1ccccc1C(=O)N1CCN(c2ccccc2)CC1
[1]
  CC50: 29.5 µM (active)

## Cc1ccc(-n2c(C)cc(/C(O)=C(/C([S-])=Nc3ccc(F)c(Cl)c3)[n+]3ccccc3)c2C)cc1
[7]
  EC50: > 38 µM (not active)
[8]
  EC50: > 160 µM (inactive)

## COc1ccc(OC)c(CCNC(=O)CCc2nnc3ccc(N4CCCCC4)nn23)c1
[2]
  EC50: 52.5 µM (active)
[3]
  EC50: > 112 µM (not active)

## Cc1cc(NC(=O)c2ccc3c(c2)OCO3)ccc1NC(=O)c1ccco1
[2]
  EC50: 12.7 µM (active)
[3]
  EC50: 4.06 µM (active)

## O=C(NCc1ccccn1)c1cc(-c2ccc(Cl)cc2)oc1C(F)(F)F
INS1
  AC50: > 260 µM (inactive)

## CCN(CCn1cccn1)Cc1c[nH]nc1-c1cccc2ccccc12
[2]
  EC50: > 112 µM (not active)
[3]
  EC50: > 112 µM (not active)

## Cc1cccc(C)c1NC(=O)CN(C)C(=O)Cn1c(=O)cnc2ccccc21
[2]
  EC50: > 112 µM (not active)
[3]
  EC50: > 112 µM (not active)

## O=C(Cn1cnc2c(cnn2-c2ccccc2)c1=O)N1CCOCC1
[1]
  CC50: 30.5 µM (active)

## O=C(NNC(=O)c1cc(Cl)ccc1O)c1ccc(NS(=O)(=O)c2cccs2)cc1
[7]
  EC50: > 38 µM (not active)
[8]
  EC50: > 160 µM (inactive)
[6]
  AC50: 9 µM (active)

## COc1cc(OC)cc(C(=O)NNC(=O)c2cc3ccccc3cc2O)c1
[7]
  EC50: > 38 µM (not active)
[8]
  EC50: > 160 µM (inactive)

## c1ccc(Cn2nnc3c(N4CCC5(CC4)OCCO5)ncnc32)cc1
[1]
  CC50: 29.6 µM (active)

## Cc1ccc(-n2c(-c3cccs3)nc3ccccc3c2=O)cc1
[6]
  AC50: 2 µM (active)

## COc1ccc(C2NC(c3ccc(OC)cc3)C([N+](=O)[O-])C(C)(C)C2[N+](=O)[O-])cc1 (stereo not drawn)
[2]
  EC50: > 112 µM (not active)
[3]
  EC50: > 112 µM (not active)

## COc1cccc(C(=O)NCc2ccc3c(c2)cc(C)n3C)c1
[2]
  EC50: 21.3 µM (active)
[3]
  EC50: > 112 µM (not active)

## COc1cccc(N2CCN(Cc3nc(O)c4c(-c5ccccc5)csc4n3)CC2)c1
[6]
  AC50: 1.08 µM (active)
